# Results taken from patent publication US8859021B2, “Skin appearance through gene manipulation” (Sytheon, priority 2007, dated 2014).
# Tests used:
# skin = details: in vivo
# EpiDerm tissues = details: retinol 10 μg/ml, Sytenol A 5 μg/ml, 2 days
compound,measurement,setting,value
"C=C[C@@](C)(/C=C/c1ccc(O)cc1)CCC=C(C)C [Sytenol A, bakuchiol]",Primary skin irritation (edema or erythema),skin,NON-PRIMARY IRRITANT
same,Laminins up-regulation by Sytenol A relative to retinol,EpiDerm tissues,almost three-fold more than retinol
same,Lecithin retinol acyltransferase up-regulation by Sytenol A relative to retinol,EpiDerm tissues,almost seven-fold higher than by retinol
same,"Fold Change, ACTN1 Alpha-actinin-1 (Alpha-actinin cytoskeletal isoform) (Table 8)",EpiDerm tissues; vs 0.1% DMSO control,+2.70 fold
same,"Fold Change, ACTN1 Alpha-actinin-1 (Alpha-actinin cytoskeletal isoform) (Table 9)",EpiDerm tissues; vs 0.1% DMSO control,+2.70 fold
same,"Fold Change, ACTN4 Alpha-actinin-4(F-actin cross-linking protein) (Table 8)",EpiDerm tissues; vs 0.1% DMSO control,+3.13 fold
same,"Fold Change, ACTN4 Alpha-actinin-4(F-actin cross-linking protein) (Table 9)",EpiDerm tissues; vs 0.1% DMSO control,+3.13 fold
same,"Fold Change, AFAP1L2 Actin filament-associated protein 1-like 2",EpiDerm tissues; vs 0.1% DMSO control,+3.84 fold
same,"Fold Change, C16orf30 Claudin-like protein 24",EpiDerm tissues; vs 0.1% DMSO control,No effect
same,"Fold Change, CDH1 Epithelia-cadherin precursor (E-cadherin) (Table 7)",EpiDerm tissues; vs 0.1% DMSO control,+21.56 fold
same,"Fold Change, CDH1 Epithelial-cadherin precursor (E-cadherin) E-Cad/CTF1 (Table 9)",EpiDerm tissues; vs 0.1% DMSO control,+21.56 fold
same,"Fold Change, CDH3 Cadherin-3-precursor (P-cadherin)",EpiDerm tissues; vs 0.1% DMSO control,+7.47 fold
same,"Fold Change, CDH19 Cadherin-19-precursor",EpiDerm tissues; vs 0.1% DMSO control,No effect
same,"Fold Change, CDH24 Cadherin-24-precursor",EpiDerm tissues; vs 0.1% DMSO control,+2.28 fold
same,"Fold Change, CDK5R1 Tau protein kinase II 23 kDa subunit (Cyclin-dependent kinase 5 activator 1 precursor (CDK5 activator 1))",EpiDerm tissues; vs 0.1% DMSO control,+2.66 fold
same,"Fold Change, CLDN4 Claudin-4 (Clostridium perfringens enterotoxin receptor) (CPE-R)",EpiDerm tissues; vs 0.1% DMSO control,+5.92 fold
same,"Fold Change, CLDN5 Claudin-5 (Transmembrane protein deleted in VCFS)",EpiDerm tissues; vs 0.1% DMSO control,No effect
same,"Fold Change, CLDN6 Claudin-6 (Skullin 2)",EpiDerm tissues; vs 0.1% DMSO control,No effect
same,"Fold Change, CLDN7 Claudin-7 (CLDN-7)",EpiDerm tissues; vs 0.1% DMSO control,+46.09 fold
same,"Fold Change, CLDN11 Claudin-11 (Oligodendrocyte-specific protein)",EpiDerm tissues; vs 0.1% DMSO control,−4.01 fold
same,"Fold Change, CLDN12 Claudin-12",EpiDerm tissues; vs 0.1% DMSO control,+2.00 fold
same,"Fold Change, CLDN16 Claudin-16 (Paracellin-1) (PCLN-1)",EpiDerm tissues; vs 0.1% DMSO control,+11.62 fold
same,"Fold Change, COL1A2 Collagen alpha-2 (I) chain precursor (Alpa-2 type I collagen)",EpiDerm tissues; vs 0.1% DMSO control,+1.85 fold
same,"Fold Change, COL3A1 Collagen alpha-1 (III) chain precursor",EpiDerm tissues; vs 0.1% DMSO control,No effect
same,"Fold Change, COL9A2 Collagen alpha-2 (IX) chain precursor",EpiDerm tissues; vs 0.1% DMSO control,+6.67 fold
same,"Fold Change, COL9A3 Collagen alpha-3 (IX) chain precursor",EpiDerm tissues; vs 0.1% DMSO control,+5.76 fold
same,"Fold Change, CTHRC1 Collagen triple helix repeat-containing protein 1 precursor",EpiDerm tissues; vs 0.1% DMSO control,−10.17 fold
same,"Fold Change, CTNNAL1 Alpha-catenin-related protein (ACRP) (Table 8)",EpiDerm tissues; vs 0.1% DMSO control,No effect
same,"Fold Change, CTNNAL1 Alpha-catenin-related protein (ACRP) (Table 9)",EpiDerm tissues; vs 0.1% DMSO control,No effect
same,"Fold Change, CYP26B1 Cytochrome P450 26B1 (Retinoic acid-metabolizing cytochrome)",EpiDerm tissues; vs 0.1% DMSO control,−1.74 fold
same,"Fold Change, Connective tissue growth factor precursor (Hypertrophic chondrocyte-specific protein 24)",EpiDerm tissues; vs 0.1% DMSO control,−2.56 fold
same,"Fold Change, DHRS9 NADP-dependent retinol dehydrogenase/reductase",EpiDerm tissues; vs 0.1% DMSO control,+11.56 fold
same,"Fold Change, DSC1 Desmocollin-1-precursor (DG2/DG3)",EpiDerm tissues; vs 0.1% DMSO control,−5.96 fold
same,"Fold Change, DSC2 Desmocollin-2-precursor (Desmocollin-3)",EpiDerm tissues; vs 0.1% DMSO control,+4.68 fold
same,"Fold Change, DSG1 Desmoglein-1-precursor (DG1)",EpiDerm tissues; vs 0.1% DMSO control,−2.26 fold
same,"Fold Change, DSG2 Desmoglein-2-precursor",EpiDerm tissues; vs 0.1% DMSO control,+20.15 fold
same,"Fold Change, DSG3 Desmoglein-3-precursor",EpiDerm tissues; vs 0.1% DMSO control,+4.25 fold
same,"Fold Change, DSG4 Desmoglein-4-precursor",EpiDerm tissues; vs 0.1% DMSO control,+10.59 fold
same,"Fold Change, ECM1 Extracellular matrix protein 1 precursor",EpiDerm tissues; vs 0.1% DMSO control,+2.00 fold
same,"Fold Change, ECM2 Extracellular matrix protein 2 precursor",EpiDerm tissues; vs 0.1% DMSO control,+4.10 fold
same,"Fold Change, ELA3B Elastase-3B precursor (Elastase IIIB)",EpiDerm tissues; vs 0.1% DMSO control,+6.58 fold
same,"Fold Change, F11R Junctional adhesion molecule 1 (JAM-1)",EpiDerm tissues; vs 0.1% DMSO control,+8.92 fold
same,"Fold Change, FLNB Actin-binding-like protein",EpiDerm tissues; vs 0.1% DMSO control,+5.87 fold
same,"Fold Change, FLRT2 Fibronectin-like-domain-containing leucine-rich transmembrane protein 2",EpiDerm tissues; vs 0.1% DMSO control,No effect
same,"Fold Change, FLRT3 Fibronectin-like-domain-containing leucine-rich transmembrane protein 3",EpiDerm tissues; vs 0.1% DMSO control,+6.18 fold
same,"Fold Change, FNDC7 Fibronectin type III domain containing 7",EpiDerm tissues; vs 0.1% DMSO control,+9.14 fold
same,"Fold Change, Fibroblast growth factor 9 (HBGF-9)",EpiDerm tissues; vs 0.1% DMSO control,−2.34 fold
same,"Fold Change, Fibroblast growth factor 23 precursor (FGF-23) (Tumor-derived hypophosphatemia-inducing factor)",EpiDerm tissues; vs 0.1% DMSO control,−3.01 fold
same,"Fold Change, Fibroblast growth factor receptor 2 precursor (FGFR-2)",EpiDerm tissues; vs 0.1% DMSO control,+8.93 fold
same,"Fold Change, Fibroblast growth factor-binding protein 1 precursor (FGF-BP1)",EpiDerm tissues; vs 0.1% DMSO control,+2.69 fold
same,"Fold Change, GSN Gelsolin precursor (Actin-depolymerizing factor) (ADF)",EpiDerm tissues; vs 0.1% DMSO control,+3.19 fold
same,"Fold Change, HAS2 Hyaluronan synthase 2",EpiDerm tissues; vs 0.1% DMSO control,No effect
same,"Fold Change, HAS3 Hyaluronan synthase 3",EpiDerm tissues; vs 0.1% DMSO control,+19.29 fold
same,"Fold Change, HS3ST1 Heparan sulfate 3-O-sulfotransferase 1 (Table 6)",EpiDerm tissues; vs 0.1% DMSO control,+24.91 fold
same,"Fold Change, HS6ST1 Heparan sulfate 6-O-sulfotransferase 1",EpiDerm tissues; vs 0.1% DMSO control,+1.79 fold
same,"Fold Change, HYAL1 Hyaluronidase-1-precursor",EpiDerm tissues; vs 0.1% DMSO control,No effect
same,"Fold Change, Heparin-binding EGF-like growth factor precursor (HB-EGF)",EpiDerm tissues; vs 0.1% DMSO control,+5.09 fold
same,"Fold Change, IGSF1 Immunoglobulin superfamily, member 1 isoform 1",EpiDerm tissues; vs 0.1% DMSO control,+2.81 fold
same,"Fold Change, IGSF3 Immunoglobulin superfamily, member 3 isoform 2",EpiDerm tissues; vs 0.1% DMSO control,+3.39 fold
same,"Fold Change, ITG5 Integrin beta-5 precursor (Table 7)",EpiDerm tissues; vs 0.1% DMSO control,No effect
same,"Fold Change, ITGA6 Integrin alpha-6 precursor",EpiDerm tissues; vs 0.1% DMSO control,+3.57 fold
same,"Fold Change, ITGB2 Integrin beta-2-precursor",EpiDerm tissues; vs 0.1% DMSO control,−7.67 fold
same,"Fold Change, ITGB4 Integrin beta-4 precursor (Table 7)",EpiDerm tissues; vs 0.1% DMSO control,+7.98 fold
same,"Fold Change, ITGB6 Integrin beta-6-precursor (Table 7)",EpiDerm tissues; vs 0.1% DMSO control,+7.71 fold
same,"Fold Change, ITGB8 Integrin beta-8 precursor (Table 3)",EpiDerm tissues; vs 0.1% DMSO control,+3.90 fold
same,"Fold Change, ITGB8 Integrin beta-8 precursor (Table 7)",EpiDerm tissues; vs 0.1% DMSO control,+3.90 fold
same,"Fold Change, Insulin growth factor-like family member 3 precursor (IGBP-3)",EpiDerm tissues; vs 0.1% DMSO control,−8.67 fold
same,"Fold Change, Insulin growth factor-like family member 4 precursor (IGBP-4)",EpiDerm tissues; vs 0.1% DMSO control,+2.41 fold
